Series [1] addresses T1, full-length hepatitis C viral protein NS3•4A (Hepatitis C virus genotype 1a, UniProt P27958).
T1 construct: hexa-histidine (N); made in house; host or cells: Sf9 insect cells (baculovirus, pVL1392)
The series is described as follows: biochemical. Details: species or system HCV sub-type strain 1a. The conditions noted are these: apparent Ki class.

The target in series [2] is T2, HCV NS3 protease domain (Hepatitis C virus genotype 1b, UniProt Q9WMX2).
T2 construct: The first 181 amino acids of NS3 (residues 1027-1207 of the viral polyprotein); hexa-histidine (C); made in house; host or cells: E. coli BL21/DE3 pLysS
The series is described as follows: biochemical. The conditions noted are these: apparent Ki class.

In series [3] the target is T2, HCV NS3 protease domain. The series is described as follows: Determination of Km and Vmax for peptide substrates. Type of series: biochemical. The conditions noted are these: enzyme NS3 protease domain; peptide substrate varied 3-200 μM; Michaelis-Menten fit. As to the method:
This assay is a modification of that described by Landro, et al. (Landro J A, Raybuck S A, Luong Y C, O'Malley E T, Harbeson S L, Morgenstern K A, Rao G and Livingston D L. Biochemistry 1997, 36, 9340-9348), and uses a peptide substrate (NS5AB), based on the NS5A/NS5B cleavage site for genotype 1a HCV. The substrate stock solution (25 mM) was prepared in DMSO containing 0.2 M DTT and stored at −20° C. A synthetic peptide cofactor (KK4A) was used as a substitute for the central core region of NS4A. The reaction was performed in a 96-well microtiter plate format using 25 ηM to 50 ηM HCV NS3 protease domain in buffer containing 50 mM HEPES pH 7.8, 100 mM NaCl, 20% glycerol, 5 mM DTT and 25 μM KK4A. The final DMSO concentration was no greater than 2% v/v. […]
The SMSY product was separated from substrate and KK4A using a microbore separation method. […] The SMSY product peak was quantitated using the data collected at […].
To determine the kinetic parameters Km and Vmax, the HCV NS3 protease domain or HCV NS3•4A was reacted with peptide substrate under the assay conditions described above. […] The ratio of the product peak area (as determined by reverse phase HPLC) to the reaction time yielded a rate of enzyme catalyzed hydrolysis. […] The value of kcat was determined from Vmax using the nominal protease concentration and a fully cleaved substrate peptide as an instrument calibration standard.

Another series deals with T3, HCV NS3•4A (Hepatitis C virus genotype 1a, UniProt P27958).
T3 construct: hexa-histidine (N); made in house; host or cells: Sf9 insect cells (baculovirus, pVL1392)
The description is as above. The conditions noted are these: enzyme NS3•4A; peptide substrate varied 3-200 μM; Michaelis-Menten fit. It is filed as biochemical, HCV sub-type strain 1a. As to the method:
(§1) This assay follows the cleavage of a peptide substrate by full-length hepatitis C viral protein NS3•4A. One of three peptide substrates based on the NS5A/NS5B cleavage site for genotype 1a HCV is used to measure enzyme activity. All substrate stock solutions (25 mM) were prepared in DMSO containing 0.2M DTT and stored at −20° C. A synthetic peptide cofactor (NS4A Peptide) was used to supplement NS4A. Peptide sequences are shown below. The hydrolysis reaction was performed in a 96-well microtiter plate format using 100 ηM to 125 ηM HCV NS3•4A in buffer containing 50 mM HEPES pH 7.8, 100 mM NaCl, 20% glycerol, 5 mM DTT and 25 μM NS4A Peptide. The final DMSO concentration was no greater than 2% v/v. Reactions using NS5AB or NS5AB-EDANS as substrate were quenched by the addition of 10% trifluoroacetic acid (TFA) to yield a final TFA concentration of 2.5%. Reactions using FITC-NS5AB-1 as substrate were quenched by the addition of 0.4M formic acid to yield a final concentration of 0.08M acid.
(§2) Enzymatic activity was assessed by separation of substrate and products by reverse phase HPLC. The instrument used was a Agilent 1100 with a G1322A degasser, either a G1312A binary pump or a G1311A quaternary pump, a G1313A autosampler, a G1316A column thermostated chamber, a G1321A fluorescence detector and a G1315A diode array detector. The column thermostat was at 40° C. […] The C-terminal product peak (NH2-SMSY-COOH) was quantitated using the absorbance data collected at 210 ηm. […] The C-terminal product peak (NH2-SMSYT-Asp(EDANS)-KKK-COOH) was quantitated using the fluorescence data collected at 350 ηm excitation/490 ηm emission. […] The N-terminal product peak (FITC-Ahx-EDVV-(alpha)Abu-C—COOH) was quantitated using the fluorescence data collected at 440 nm excitation/520 nm emission. Alternatively, the ratio of N-terminal product to unreacted FITC-NS5AB-1 substrate was determined using a Caliper LabChip 3000 with detection at 488 nm excitation/530 nm emission, using a chip buffer of 100 mM Tris pH 7.0, 10 mM EDTA, 0.01% (v/v) Brij-35, and 0.1% (v/v) CR-3. […]

The subject of series [4] is CC[C@H](NC(=O)[C@@H](NC(=O)[C@@H](NC(=O)[C@H](CC(=O)O)NC(=O)[C@@H](N)CCC(=O)O)C(C)C)C(C)C)C(=O)N[C@@H](CS)C(=O)N[C@@H](CO)C(=O)N[C@@H](CCSC)C(=O)N[C@@H](CO)C(=O)N[C@@H](Cc1ccc(O)cc1)C(=O)N[C@H](C(=O)N[C@@H](CC(=O)NCCNc1cccc2c(S(=O)(=O)O)cccc12)C(=O)N[C@@H](CCCCN)C(=O)N[C@@H](CCCCN)C(=O)N[C@@H](CCCCN)C(=O)O)[C@@H](C)O. The description is as above. Type of series: biochemical, HCV sub-type strain 1a. The conditions noted are these: other: enzyme NS3•4A; peptide substrate varied 3-200 μM; Michaelis-Menten fit; 40.0 °C. As to the method:
as §1, §2

The mark [5] stands for this setting: Enzyme Assay 2 (HCV NS3 Peptide Cleavage Assay) activity.
[6] abbreviates: Enzyme Assay 1 (HCV NS3 Protease Domain Peptide Cleavage Assay) activity.

Like-named read-outs stand apart in the source and are kept apart here. Where a SMILES comes first, the peptide text is derived from it. [ ]: non-standard residue; d: D form. Abu = CC[C@H](N)C(=O)O

In the case of `CCC[C@H](NC(=O)[C@@H]1C[C@]2(CC(c3cccc(Cl)c3)=NO2)CN1C(=O)[C@@H](NC(=O)CC1CCCCC1)C(C)(C)C)C(=O)C(=O)NC1CCS(=O)(=O)C1` (stereo partly drawn) [Compound 565], the Ki (in series [1] (setting [5]); at HCV NS3 protease domain [2] (setting [6])) was over 500 nM throughout.
In the case of `CCC[C@H](NC(=O)[C@@H]1C[C@]2(CC(CC)=NO2)CN1C(=O)[C@@H](NC(=O)CC1CCOCC1)C(C)(C)C)C(=O)C(=O)NC1CC1` [Compound 566], the Ki (in series [1] (setting [5]); at HCV NS3 protease domain [2] (setting [6])) was over 500 nM throughout.
For the compound `CCC[C@H](NC(=O)[C@@H]1C[C@]2(CC(c3cccc(Cl)c3)=NO2)CN1C(=O)[C@@H](NC(=O)CC1CCCCC1)C(C)(C)C)C(=O)C(=O)NCc1nc2ccccc2[nH]1` [Compound 567], the results for the Ki (in series [1] (setting [5]); at HCV NS3 protease domain [2] (setting [6])) were 100 to 500 nM and over 500 nM, respectively.
`CCC[C@H](NC(=O)[C@@H]1C[C@]2(CC(c3cccc(Cl)c3)=NO2)CN1C(=O)[C@@H](NC(=O)CC1CCCCC1)C(C)(C)C)C(=O)C(=O)N1CCCCC1` [Compound 568]: the Ki (in series [1] (setting [5]); on HCV NS3 protease domain [2] (setting [6])) was over 500 nM in each case.
For `CCC[C@H](NC(=O)[C@@H]1C[C@]2(CC(c3cccc(Cl)c3)=NO2)CN1C(=O)[C@@H](NC(=O)CC1CCCCC1)C(C)(C)C)C(=O)C(=O)Nc1ccc(F)c(F)c1` [Compound 573], the Ki (in series [1] (setting [5]); on HCV NS3 protease domain [2] (setting [6])) was over 500 nM throughout.
On to `CCC[C@H](NC(=O)[C@@H]1C[C@]2(CC(c3cccc(Cl)c3)=NO2)CN1C(=O)C(C)N1Cc2ccccc2C1=O)C(=O)C(=O)NC1CC1` (stereo partly drawn) [Compound 574], for which the Ki (in series [1] (setting [5]); on HCV NS3 protease domain [2] (setting [6])) was over 500 nM in each case.
On to `CCC[C@H](NC(=O)[C@@H]1C[C@]2(CC(c3cccc(Cl)c3)=NO2)CN1C(=O)[C@@H](NC(=O)CC1CCC(C)(O)CC1)C(C)(C)C)C(=O)C(=O)NC1CC1` (stereo partly drawn) [Compound 575], for which the Ki (in series [1] (read-out: Enzyme Assay 2 (HCV NS3 Peptide Cleavage Assay) activity); at HCV NS3 protease domain [2] (read-out: Enzyme Assay 1 (HCV NS3 Protease Domain Peptide Cleavage Assay) activity)) was under 100 nM throughout.
Consider `CCC[C@H](NC(=O)[C@@H]1C[C@]2(CC(c3cccc(Cl)c3)=NO2)CN1C(=O)C1=CC(c2cc(OC)ccc2OC)NC(=O)N1)C(=O)C(=O)NC1CC1` (stereo partly drawn) [Compound 586], for which the Ki (in series [1] (setting [5]); on HCV NS3 protease domain [2] (setting [6])) was over 500 nM throughout.
Turning to `CCC[C@H](NC(=O)[C@@H]1C[C@]2(CC(c3cccc(Cl)c3)=NO2)CN1C(=O)[C@H](CC(C)C)NS(=O)(=O)c1ccc(OC)cc1)C(=O)C(=O)NC1CC1` [Compound 587], the Ki in series [1] (setting [5]) was 100 to 500 nM; at HCV NS3 protease domain [2] (setting [6]) it was over 500 nM.
The like results for `CCC[C@H](NC(=O)[C@@H]1C[C@]2(CC(c3cccc(Cl)c3)=NO2)CN1C(=O)[C@@H](NC(=O)CC1CCCCC1)C(C)(C)C)C(=O)C(=O)Nc1cccc(C#N)c1` [Compound 588] were, in that order, over 500 nM and over 500 nM.
In general, Km refers to the concentration of substrate that gives half-maximal velocity. Consider `CC[C@H](NC(=O)[C@@H](NC(=O)[C@@H](NC(=O)[C@H](CC(=O)O)NC(=O)[C@@H](N)CCC(=O)O)C(C)C)C(C)C)C(=O)N[C@@H](CS)C(=O)N[C@@H](CO)C(=O)N[C@@H](CCSC)C(=O)N[C@@H](CO)C(=O)N[C@@H](Cc1ccc(O)cc1)C(=O)O` [DomainNS5AB] (H-EDVV[Abu]CSMSY-OH), for which the Km on HCV NS3 protease domain [3] is 25 µM.
As for `CC[C@H](NC(=O)[C@@H](NC(=O)[C@@H](NC(=O)[C@H](CC(=O)O)NC(=O)[C@@H](N)CCC(=O)O)C(C)C)C(C)C)C(=O)N[C@@H](CS)C(=O)N[C@@H](CO)C(=O)N[C@@H](CCSC)C(=O)N[C@@H](CO)C(=O)N[C@@H](Cc1ccc(O)cc1)C(=O)O` [NS5AB, NH2-EDVV-(alpha)Abu-CSMSY-COOH] (H-EDVV[Abu]CSMSY-OH), on HCV NS3•4A, the Km amounted to 30 µM.
Broadly, the kcat/Km is the second-order rate constant that governs catalysis at low substrate concentration. On to “HCV NS3•4A (Hepatitis C virus (isolate H77))”, for which, in series [4], the Km was found to be 56 µM and the kcat/Km came to 1400 M⁻¹ s⁻¹.

Values taken from patent US7964624B1, “Inhibitors of serine proteases” (priority 2005, dated 2011).
